Data published in patent publication US6855843B2, “Inhibitors of α4 mediated cell adhesion” (Tanabe Seiyaku Co., Ltd., priority 1998, dated 2005).

What was measured:
[1] = molecular target: T1, α4β7 (adhesion of RPMI cells to CS-1) (Homo sapiens, UniProt P13612+P26010); assay: RPMI-CS-1 cell adhesion assay; type: cell-based; details: adhesion of RPMI B-cell line (expresses α4β7) to CS-1 peptide coated microwells; read-out: RPMI-CS-1 IC50 value range
T1 construct: endogenous in cells
T1 sequence (P13612 34-1032): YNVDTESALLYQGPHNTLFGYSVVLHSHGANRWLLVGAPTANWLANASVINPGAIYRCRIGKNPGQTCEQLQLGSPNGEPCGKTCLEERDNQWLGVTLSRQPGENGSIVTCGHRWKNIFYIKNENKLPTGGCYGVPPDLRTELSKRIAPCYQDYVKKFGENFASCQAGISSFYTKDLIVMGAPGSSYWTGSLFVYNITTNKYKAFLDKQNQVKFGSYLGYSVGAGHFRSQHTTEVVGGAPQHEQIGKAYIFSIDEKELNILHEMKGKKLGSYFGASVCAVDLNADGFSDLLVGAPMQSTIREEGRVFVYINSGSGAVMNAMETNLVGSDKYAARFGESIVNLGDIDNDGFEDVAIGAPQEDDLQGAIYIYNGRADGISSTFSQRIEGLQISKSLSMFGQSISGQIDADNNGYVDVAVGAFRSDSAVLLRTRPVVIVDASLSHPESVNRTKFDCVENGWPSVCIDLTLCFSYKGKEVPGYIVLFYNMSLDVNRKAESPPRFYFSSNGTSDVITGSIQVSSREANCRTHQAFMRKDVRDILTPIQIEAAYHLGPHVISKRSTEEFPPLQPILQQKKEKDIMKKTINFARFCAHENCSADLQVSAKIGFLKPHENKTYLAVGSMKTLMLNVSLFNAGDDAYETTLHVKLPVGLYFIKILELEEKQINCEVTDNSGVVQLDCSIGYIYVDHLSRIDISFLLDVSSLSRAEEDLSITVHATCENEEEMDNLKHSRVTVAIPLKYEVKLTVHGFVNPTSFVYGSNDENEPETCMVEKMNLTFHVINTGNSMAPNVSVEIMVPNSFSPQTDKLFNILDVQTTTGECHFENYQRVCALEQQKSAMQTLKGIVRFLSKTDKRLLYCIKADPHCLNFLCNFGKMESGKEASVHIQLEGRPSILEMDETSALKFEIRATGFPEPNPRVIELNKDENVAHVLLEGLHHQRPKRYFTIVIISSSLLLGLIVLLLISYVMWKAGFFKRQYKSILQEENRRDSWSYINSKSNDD
T1 sequence (P26010 20-798): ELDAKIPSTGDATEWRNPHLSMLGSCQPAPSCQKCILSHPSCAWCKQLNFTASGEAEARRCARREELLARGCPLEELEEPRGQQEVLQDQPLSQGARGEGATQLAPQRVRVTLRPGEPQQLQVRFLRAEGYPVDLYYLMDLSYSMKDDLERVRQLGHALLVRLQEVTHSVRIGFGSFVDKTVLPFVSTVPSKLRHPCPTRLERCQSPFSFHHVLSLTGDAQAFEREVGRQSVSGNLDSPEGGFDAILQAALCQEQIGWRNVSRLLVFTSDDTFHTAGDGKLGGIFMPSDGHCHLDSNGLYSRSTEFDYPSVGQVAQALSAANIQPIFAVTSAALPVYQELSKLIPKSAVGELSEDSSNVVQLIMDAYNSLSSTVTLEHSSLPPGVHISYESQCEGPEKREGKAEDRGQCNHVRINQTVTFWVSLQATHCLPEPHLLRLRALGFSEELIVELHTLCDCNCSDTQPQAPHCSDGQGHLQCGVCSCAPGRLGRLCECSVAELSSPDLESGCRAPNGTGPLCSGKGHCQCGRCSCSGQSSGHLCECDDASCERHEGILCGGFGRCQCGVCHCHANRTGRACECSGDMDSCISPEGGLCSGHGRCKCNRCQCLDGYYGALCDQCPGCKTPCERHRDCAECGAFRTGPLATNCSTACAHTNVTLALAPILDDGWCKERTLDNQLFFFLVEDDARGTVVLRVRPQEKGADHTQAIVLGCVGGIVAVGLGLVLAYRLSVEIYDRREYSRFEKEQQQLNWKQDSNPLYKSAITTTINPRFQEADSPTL

Row | IC50 [1] [nM] | melting point | SMILES
1 | < 300 | 124 to 125 °C | O=C(N[C@@H](Cc1ccc(-c2c(OCCO)cccc2OCCO)cc1)C(=O)O)c1c(Cl)cccc1Cl [Example 229]
2 | < 300 | 236 to 237 °C | CNC(=O)Nc1ccc(OC)c(-c2ccc(C[C@H](NC(=O)c3c(Cl)cccc3Cl)C(=O)O)cc2)c1OC [Example 324, N-(2,6-Dichlorobenzoyl)-4-[2,6-dimethoxy-3-(methylureido)phenyl]-L-phenylalanine]
3 | 1000 to 5000 | 200 to 201 °C | Cc1cccc(C)c1-c1ccc(C[C@H](NC(=O)c2c(Cl)cccc2Cl)C(=O)O)cc1 [Example 145]
4 | < 300 | 206 to 207 °C | COc1cccc(OC)c1-c1ccc(C[C@H](NC(=O)c2c(Cl)cc(F)cc2Cl)C(=O)O)cc1 [Example 320, N-(2,6-Dichloro-4-fluorobenzoyl)-4-(2,6-dimethoxyphenyl)-L-phenylalanine]
5 | < 300 | 158 to 159 °C | COc1cccc(OCCO)c1-c1ccc(C[C@H](NC(=O)c2c(Cl)cccc2Cl)C(=O)O)cc1 [Example 227, N-(2,6-Dichlorobenzoyl)-4-[6-methoxy-2-(2-hydroxyethoxy)phenyl]-L-phenylalanine]
6 | < 300 | 274 °C | CNCc1cc(OC)c(-c2ccc(C[C@H](NC(=O)c3c(Cl)cccc3Cl)C(=O)O)cc2)c(OC)c1 [Example 242, N-(2,6-Dichlorobenzoyl)-4-[2,6-dimethoxy-4-[(methylamino)methyl]phenyl]-L-phenylalanine]
7 | < 300 | 168 to 169 °C | CN(C)CCOc1cccc(O)c1-c1ccc(C[C@H](NC(=O)c2c(Cl)cccc2Cl)C(=O)O)cc1 [Example 232]
8 | < 300 | 221 to 222 °C | COc1cc(N)cc(OC)c1-c1ccc(C[C@H](NC(=O)c2c(Cl)cccc2Cl)C(=O)O)cc1 [Example 157, N-(2,6-Dichlorobenzoyl)-4-(4-amino-2,6-dimethoxyphenyl)-L-phenylalanine]
9 | < 300 | 244 to 245 °C | COc1ccc(NC(C)=O)c(OC)c1-c1ccc(C[C@H](NC(=O)c2c(Cl)cccc2Cl)C(=O)O)cc1 [Example 325, N-(2,6-Dichlorobenzoyl)-4-[2,6-dimethoxy-3-(acetylamino)phenyl]-L-phenylalanine]
10 | < 300 | 238 to 239 °C (dec.) | CCCc1cc(OC)c(-c2ccc(C[C@H](NC(=O)c3c(Cl)cccc3Cl)C(=O)O)cc2)c(OC)c1 [Example 149]
11 | < 300 | 228 to 229 °C | COc1ccc(F)c(OC)c1-c1ccc(C[C@H](NC(=O)c2c(Cl)cccc2Cl)C(=O)O)cc1 [Example 153A, N-(2,6-Dichlorobenzoyl)-4-(2,6-dimethoxy-3-fluorophenyl)-L-phenylalanine]

More lines, now with the values behind:

Row | SMILES | IC50 [1] [nM] | melting point
12 | COc1ccccc1-c1cccc(CC(NC(=O)c2c(Cl)cccc2Cl)C(=O)O)c1 (racemic) [Example 6, N-(2,6-Dichlorobenzoyl)-3-[2-methoxyphenyl)-DL-phenylalanine] | > 5000 | 104 °C
13 | COc1ccccc1-c1ccc(C[C@H](NC(=O)c2c(Cl)cccc2Cl)C(=O)O)cc1C(C)=O [Example 71, 3-Acetyl-N-(2,6-dichlorobenzoyl)-4-(2-methoxyphenyl)-L-phenylalanine] | < 300 | 87 to 89 °C
14 | COc1cc(C(=O)NCc2ccccc2)cc(OC)c1-c1ccc(C[C@H](NC(=O)c2c(Cl)cccc2Cl)C(=O)O)cc1 [Example 167] | < 300 | 153 to 154 °C
15 | COc1ccccc1-c1ccc(C[C@H](NC(=O)C(C)c2c(Cl)cccc2Cl)C(=O)O)cc1 (stereo partly drawn) [Example 213, N-[2-(2,6-Dichlorophenyl)propionyl]-4-(2-methoxyphenyl)-L-phenylalanine] | 1000 to 5000 | 109 to 110 °C
16 | COc1cccc(OC)c1-c1ccc(C[C@H](NC(=O)c2c(Cl)ccc(-c3c(C)noc3C)c2Cl)C(=O)O)cc1 [Example 305, N-[3-(3,5-Dimethyl-4-isoxazolyl)-2,6-dichlorobenzoyl]-4-(2,6-dimethoxyphenyl)-L-phenylalanine] | 300 to 1000 | 144.8 °C
17 | CS(=O)(=O)Nc1ccc(C(=O)N[C@@H](Cc2ccc(-c3ccccc3C(F)(F)F)cc2)C(=O)O)c(Cl)c1 [Example 335, N-[2-Chloro-4-(methansulfonylamino)benzoyl]-4-[2-(trifluoromethyl)phenyl]-L-phenylalanine] | 300 to 1000 | 114 °C
18 | COc1cccc(OC)c1-c1ccc(C[C@H](NC(=O)c2c(Cl)cc(NC(C)=O)cc2Cl)C(=O)O)cc1 [Example 199] | < 300 | 227 to 229 °C
19 | COc1cccc(OC)c1-c1ccc(C[C@H](NC(=O)c2c(Cl)cc(NS(=O)(=O)c3cccs3)cc2Cl)C(=O)O)cc1 [Example 193, N-[2,6-Dichloro-4-[(2-thienylsulfonyl)amino]benzoyl]-4-(2,6-dimethoxyphenyl)-L-phenylalanine] | < 300 | 141 to 142 °C
20 | O=C(N[C@@H](Cc1ccc(-c2cccc3c2OCC3)cc1)C(=O)O)c1c(Cl)cccc1Cl [Example 327] | < 300 | 215 to 216 °C
21 | CC(C)(C)OC(=O)n1cccc1-c1ccc(C[C@H](NC(=O)c2c(Cl)cccc2Cl)C(=O)O)cc1 [Example 329, N-(2,6-Dichlorobenzoyl)-4-(1-tert-butoxycarbonyl-2-pyrrolyl)-L-phenylalanine] | 1000 to 5000 | 98 to 99 °C
22 | COc1ccccc1-c1ccc(C[C@H](NC(=O)c2c(Cl)cccc2Cl)C(=O)O)cc1OC [Example 75, N-(2,6-Dichlorobenzoyl)-3-methoxy-4-(2-methoxyphenyl)-L-phenylalanine] | < 300 | 100 to 102 °C
23 | COc1ccc(CN2CCOCC2)c(OC)c1-c1ccc(C[C@H](NC(=O)c2c(Cl)cccc2Cl)C(=O)O)cc1 [Example 319, N-(2,6-Dichlorobenzoyl)-4-[2,6-dimethoxy-3-(morpholinomethyl)phenyl]-L-phenylalanine] | < 300 | 241 to 242 °C
24 | COc1ccc(OC)c(-c2ccc(C[C@H](NC(=O)c3c(Cl)cccc3Cl)C(=O)O)cc2C(C)O)c1OC (some centres unmarked) [Example 340] | < 300 | 121 to 123 °C
25 | COc1cc(C(=O)NS(C)(=O)=O)cc(OC)c1-c1ccc(C[C@H](NC(=O)c2c(Cl)cccc2Cl)C(=O)O)cc1 [Example 173, N-(2,6-Dichlorobenzoyl)-4-[4-(methanesulfonylamino)carbonyl-2,6-dimethoxyphenyl]-L-phenylalanine] | < 300 | 277 to 278 °C
26 | CCCCC(=O)c1cc(C[C@H](NC(=O)c2c(Cl)cccc2Cl)C(=O)O)ccc1-c1ccccc1OC [Example 338] | < 300 | 117.6 °C
27 | COc1cccc(OC)c1-c1ccc(C[C@H](NC(=O)c2c(Cl)cc(-c3ccc[nH]3)cc2Cl)C(=O)O)cc1 [Example 303, N-[4-(2-Pyrrolyl)-2,6-dichlorobenzoyl]-4-(2,6-dimethoxyphenyl)-L-phenylalanine] | < 300 | 250 °C
28 | COc1c(C)c(OC)c(-c2ccc(C[C@H](NC(=O)c3c(Cl)cccc3Cl)C(=O)O)cc2)c(OC)c1C [Example 147] | < 300 | 114 to 115 °C
